Where “and” joins values, the source holds several entries; their conditions need not be identical. Equal values may be shown once.
Experiments:
Assay type in all cases: in vivo, human
[1] = system: chronic pruritus associated with atopic dermatitis; assay: Phase II randomized double-blind placebo-controlled study NCT02651714 (Example 3); parameters: key to average itch VAS, difference / worst itch VAS, difference: VAS in mm, 0-100 mm scale; key to Average Itch VAS / worst Itch VAS: change in VAS, mm on 0-100 mm scale; CGI-C / SKINDEX-16 / Worst Itch NRS Night / worst itch NRS night, difference / CGIC, difference: scale not given here
Description: A phase II, multicenter, randomized, double-blind, placebo-controlled clinical study (“Tradipitant in Treatment-resistant Pruritus Associated with Atopic Dermatitis,” clinicaltrials.gov Study ID NCT02651714) is conducted to determine the efficacy of tradipitant relative to placebo in reducing chronic pruritus as measured by the VAS.
Inclusion criteria for the study include chronic (≥6 weeks) itch related to AD that is refractory to treatment by patient history, average itch score by VAS of ≥70 mm (out of 100 mm), verbal response score (VRS) of ≥3 on at least one of the past three days prior to randomization, and a SCORAD of <80.
Patients are randomized to receive either 85 mg of tradipitant or placebo (1:1) bid. The design for the randomized, placebo-controlled, double-blind study is depicted in FIG. 3. Individuals with chronic pruritus associated with AD are administered 85 mg of tradipitant bid or placebo for eight weeks. Average itch severity and worst itch severity are assessed by VAS, and VRS is assessed every two weeks. In addition, treatment is assessed biweekly using both the objective and subjective SCORing Atopic Dermatitis (SCORAD) Index (Severity Scoring of Atopic Dermatitis: The SCORAD Index, Consensus Report of the European Task Force on Atopic Dermatitis, Dermatology 1993; 186:23-31) and the Eczema Area and Severity Index (EASI) (Hanifin et al., The eczema area and severity index (EASI): assessment of reliability in atopic dermatitis, Experimental Dermatology 10(1):11-18 (2001)). The Clinical Global Impressions of Change (CGI-C) scale, the Patient Global Impression of Change (PGIC) scale with respect to both itch and AD, the Patient Benefit Index (PBI), and SKINDEX-16 scales are also used for assessments. Twice daily questionnaires are completed to report worst and average itch by numeric rating scale (NRS).
The objective SCORAD assessment includes parameters including extension, intensity, excoriations, erythema, oozing or crusting, the presence of edema or papules, lichenification, and skin dryness. The subjective SCORAD assessment includes patient assessments of itch and insomnia.

[2] = system: change of Worst Itch (VAS) in patients suffering from atopic dermatitis; assay: INADL variants modifying change of Worst Itch (VAS) in the treated cohort (Example 6, Table 12)
Source text: In addition, within the treated cohort described herein in Example 4, Table 6, the top loci identified as modifying change of Worst Itch (VAS) are variants located within INADL gene, shown below in Table 12.

[3] = Plasma levels of tradipitant at time of efficacy evaluation, PK analysis (Example 1); settings: 100 mg qd
Description: Baseline VAS scores are 76.1 and 77.2 for the tradipitant and placebo arms respectively. Efficacy is evaluated through a number of clinical research instruments. In addition, at the time of efficacy evaluation blood samples are collected for PK analysis in order to determine the plasma levels of tradipitant.
The average plasma concentrations of tradipitant across AM and PM-evaluated patients are between about 125 ng/mL and about 225 ng/mL. Patients evaluated in the afternoons (PM) (mean=about 20 hours post last administration) tend to have lower plasma concentrations of tradipitant than patients evaluated in the mornings (AM) (mean=about 15 hours post last administration). The average plasma concentration in the PM group is about 125 ng/mL, and the average plasma concentration in the AM group is about 225 ng/mL, the difference being largely attributable to the length of time post-administration.

[4] = system: responders and non-responders to tradipitant treatment of atopic dermatitis; assay: Association analysis of genetic markers with VAS response to tradipitant treatment (Example 6, Tables 10-11)
Description: A further study is performed to identify additional genetic markers that correlate directly with a positive response to tradipitant treatment. To identify the genetic markers, an association analysis is conducted using a logistic additive model. Visual Analog Scale (VAS) is used as the response outcome metric. The identified variants are shown below in Table 10.
Using the top significant SNPs chosen by p-value cutoff, individuals are classified on responder status to tradipitant treatment, with AUC of 0.95 (10 fold cross validation). Loss of function (LOF) and protein coding variants are investigated in terms of VAS outcomes on the cohort of cases.

[5] = ITT population, 85 mg bid, week 8
[6] = categorical, ITT, 85 mg bid, week 8
[7] = difference tradipitant vs placebo, 85 mg bid, week 8

SMILES: O=C(c1ccccc1Cl)c1cccnc1-c1nnn(Cc2cc(C(F)(F)F)cc(C(F)(F)F)c2)c1-c1ccncc1 [Tradipitant]
- time at which treatment effects in both itch and disease severity are evident ([1]; 85 mg bid): 2 Week
- clinical features of severity of atopic dermatitis, including excoriation, erythema, oozing and dryness ([1]; 85 mg bid vs placebo): significant improvements
- Average Itch VAS [1, 5]: −41.5
- CGI-C [1, 5]: 2.6
- PBI [1, 5]: 1.7 and 1.72
- PGI-C AD [1, 5]: 2.7 and 2.74
- PGI-C Itch [1, 5]: 2.6 and 2.56
- SKINDEX-16 [1, 5]: −34.8
- Worst Itch NRS Night [1, 5]: −3.4
- Worst itch NRS day [1, 5]: −3.3
- worst Itch VAS [1, 5]: −44.2
- Worst itch VAS ≥30 (responders) ([1]; categorical, ≥30 points improvement from baseline, ITT, 85 mg bid, week 8): 56.60%
- Worst itch VAS ≥40 (responders) ([1]; categorical, ≥40 points improvement from baseline, ITT, 85 mg bid, week 8): 52.6%
- EASI ≥75% (patients with 75% or greater improvement) [1, 6]: 21.1%
- SCORAD ≥50% (patients with 50% or greater improvement) [1, 6]: 44.0%
- CGIC, difference [1, 7]: −0.7
- EASI ≥75%, difference [1, 7]: 10.0%
- PBI, difference [1, 7]: 0.48
- PGIC AD, difference [1, 7]: −0.71
- PGIC itch, difference [1, 7]: −0.6
- SCORAD total, difference [1, 7]: −7.68
- SCORAD ≥50%, difference [1, 7]: 23.2%
- average itch VAS, difference [1, 7]: −5.7
- objective SCORAD, difference [1, 7]: −6.1
- subjective SCORAD, difference [1, 7]: −1.43
- worst itch NRS day, difference [1, 7]: −0.81
- worst itch NRS night, difference [1, 7]: −1.05
- worst itch VAS (≥40), difference [1, 7]: 17.9%
- worst itch VAS, difference [1, 7]: −13.6
- Genotype associated with worse Worst Itch (VAS) response ([2]; INADL SNP rs370530530, minor allele CT, major allele C, treated cohort): CTCT
- response as measured by change of Worst Itch (VAS), by genotype ([2]; INADL rs11207834 TT genotype): itch scale improvement
- response as measured by change of Worst Itch (VAS), by genotype ([2]; INADL rs11207834 minor allele, 85 mg bid): decreased response to treatment
- average plasma concentration ([3]; AM group, mean about 15 hours post last administration): about 225 ng/mL
- plasma concentration at which patients tend to show greater efficacy ([3]; PK-efficacy correlation): > 100 ng/mL
- average plasma concentration ([3]; PM group, mean about 20 hours post last administration): about 125 ng/mL
- response to tradipitant treatment of atopic dermatitis by genotype ([4]; CTNNA3 rs57930837 AA genotype): a majority of rs57930837 AA individuals do not respond to treatment
- response to tradipitant treatment of atopic dermatitis by genotype ([4]; CTNNA3 rs57930837 CA genotype): a majority of individuals having a CA rs57930837 genotype respond to treatment
- response to tradipitant treatment of atopic dermatitis by genotype ([4]; CTNNA3 rs57930837 CC genotype): all individuals having a CC rs57930837 genotype respond to treatment

Source: US11549147B2, “Treatment of atopic dermatitis with tradipitant” (VANDA PHARMACEUTICALS INC., priority 2017, dated 2023)
